± gives the uncertainty stated by the source.
Assay: xn = mol fraction of the nth substance listed

CC(C)c1ccccc1 + CC(C)O
viscosity [mPa·s], 101 kPa
Conditions | x2 = 0.1013 | x2 = 0.2013 | x2 = 0.2991 | x2 = 0.4002 | x2 = 0.4993 | x2 = 0.6002 | x2 = 0.7002 | x2 = 0.8006 | x2 = 0.9002
303.15 K | 0.6764 ± 0.0055 | 0.6831 ± 0.0054 | 0.7003 ± 0.0055 | 0.7299 ± 0.0056 | 0.7766 ± 0.0058 | 0.8482 ± 0.0062 | 0.9452 ± 0.0067 | 1.104 ± 0.008 | 1.34 ± 0.0091
308.15 K | 0.6347 ± 0.0052 | 0.6402 ± 0.0051 | 0.6534 ± 0.0051 | 0.6776 ± 0.0052 | 0.7151 ± 0.0054 | 0.7732 ± 0.0057 | 0.8534 ± 0.0061 | 0.9869 ± 0.0069 | 1.183 ± 0.008
313.15 K | 0.5971 ± 0.0049 | 0.599 ± 0.0048 | 0.6093 ± 0.0048 | 0.6291 ± 0.0049 | 0.6596 ± 0.005 | 0.7081 ± 0.0053 | 0.7742 ± 0.0056 | 0.8854 ± 0.0062 | 1.046 ± 0.0071
318.15 K | 0.562 ± 0.0047 | 0.5619 ± 0.0046 | 0.5682 ± 0.0046 | 0.5853 ± 0.0046 | 0.611 ± 0.0047 | 0.6508 ± 0.0049 | 0.7041 ± 0.0052 | 0.7975 ± 0.0057 | 0.9303 ± 0.0064
323.15 K | 0.5287 ± 0.0044 | 0.5275 ± 0.0043 | 0.5322 ± 0.0043 | 0.5444 ± 0.0043 | 0.5654 ± 0.0044 | 0.5976 ± 0.0045 | 0.6419 ± 0.0048 | 0.7195 ± 0.0052 | 0.8272 ± 0.0058

CCCN(CCC)C(C)=O + O
298.16 K, 101 kPa
Conditions | viscosity [mPa·s]
x2 = 0.0688 | 2.38 ± 0.02
x2 = 0.1822 | 2.71 ± 0.02
x2 = 0.3049 | 3.12 ± 0.03
x2 = 0.4342 | 3.66 ± 0.03
x2 = 0.5515 | 4.26 ± 0.04
x2 = 0.6896 | 4.87 ± 0.04
x2 = 0.74 | 4.95 ± 0.04
x2 = 0.762 | 4.95 ± 0.04
x2 = 0.7891 | 4.88 ± 0.04
x2 = 0.8742 | 3.94 ± 0.03
x2 = 0.9163 | 2.96 ± 0.03

CCCCCCCC(=O)O + CCCCCCCCCCCC(=O)O
100 kPa, x2 = 0.25
Conditions | viscosity [mPa·s]
293.15 K | 8.223 ± 0.19
298.15 K | 7.085 ± 0.16
303.15 K | 6.158 ± 0.14
308.15 K | 5.394 ± 0.12
313.15 K | 4.759 ± 0.11
318.15 K | 4.227 ± 0.096
323.15 K | 3.777 ± 0.086

O=C(O)c1cc(O)c(O)c(O)c1 + CC(C)=O
viscosity [mPa·s], 101 kPa
Conditions | 293.15 K | 298.15 K | 303.15 K | 308.15 K | 313.15 K
x1 = 0.0034 | 0.361 ± 0.01 | 0.345 ± 0.009 | 0.332 ± 0.009 | 0.318 ± 0.009 | 0.307 ± 0.008
x1 = 0.0069 | 0.383 ± 0.01 | 0.367 ± 0.01 | 0.348 ± 0.009 | 0.337 ± 0.009 | 0.323 ± 0.009
x1 = 0.01 | 0.401 ± 0.011 | 0.388 ± 0.01 | 0.368 ± 0.01 | 0.352 ± 0.009 | 0.338 ± 0.009
x1 = 0.014 | 0.424 ± 0.011 | 0.409 ± 0.011 | 0.383 ± 0.01 | 0.368 ± 0.01 | 0.356 ± 0.01

Oc1ccccc1Cl + CCN(CC)CC
298 K, 101.33 kPa
Conditions | viscosity [mPa·s]
x1 = 0.074 | 0.447 ± 0.0089
x1 = 0.305 | 1.41 ± 0.028
x1 = 0.408 | 3.58 ± 0.072
x1 = 0.473 | 7.81 ± 0.16
x1 = 0.552 | 26.2 ± 0.52
x1 = 0.616 | 109 ± 2.2
x1 = 0.65 | 255 ± 5.1
x1 = 0.703 | 529 ± 11
x1 = 0.72 | 594 ± 12
x1 = 0.751 | 451 ± 9
x1 = 0.769 | 343 ± 6.9
x1 = 0.797 | 213 ± 4.3
x1 = 0.843 | 68.9 ± 1.4
x1 = 0.87 | 34.3 ± 0.69
x1 = 0.901 | 18.3 ± 0.37
x1 = 0.956 | 5.91 ± 0.12

CC(C)c1ccccc1 + COC(=O)c1ccccc1
viscosity [mPa·s], 101 kPa
Conditions | x2 = 0.1127 | x2 = 0.2209 | x2 = 0.3251 | x2 = 0.429 | x2 = 0.5302 | x2 = 0.6213 | x2 = 0.7199 | x2 = 0.8144 | x2 = 0.9082
303.15 K | 0.729 ± 0.011 | 0.795 ± 0.011 | 0.865 ± 0.012 | 0.94 ± 0.01 | 1.029 ± 0.012 | 1.128 ± 0.013 | 1.244 ± 0.013 | 1.364 ± 0.014 | 1.502 ± 0.015
313.15 K | 0.649 ± 0.011 | 0.694 ± 0.011 | 0.75 ± 0.01 | 0.819 ± 0.012 | 0.883 ± 0.012 | 0.961 ± 0.012 | 1.044 ± 0.013 | 1.132 ± 0.013 | 1.235 ± 0.014

From the CheMixHub viscosity set
